Like-named read-outs stand apart in the source and are kept apart here.
Molecular target: T1, Endothelial lipase (EL) (Homo sapiens, UniProt Q9Y5X9)
T1 construct: HT-1080 cells, which were transformed by RAGE technology (Athersys) to overexpress endogenous EL; endogenous in cells; conditioned medium used as the enzyme source
T1 sequence (Q9Y5X9 21-500): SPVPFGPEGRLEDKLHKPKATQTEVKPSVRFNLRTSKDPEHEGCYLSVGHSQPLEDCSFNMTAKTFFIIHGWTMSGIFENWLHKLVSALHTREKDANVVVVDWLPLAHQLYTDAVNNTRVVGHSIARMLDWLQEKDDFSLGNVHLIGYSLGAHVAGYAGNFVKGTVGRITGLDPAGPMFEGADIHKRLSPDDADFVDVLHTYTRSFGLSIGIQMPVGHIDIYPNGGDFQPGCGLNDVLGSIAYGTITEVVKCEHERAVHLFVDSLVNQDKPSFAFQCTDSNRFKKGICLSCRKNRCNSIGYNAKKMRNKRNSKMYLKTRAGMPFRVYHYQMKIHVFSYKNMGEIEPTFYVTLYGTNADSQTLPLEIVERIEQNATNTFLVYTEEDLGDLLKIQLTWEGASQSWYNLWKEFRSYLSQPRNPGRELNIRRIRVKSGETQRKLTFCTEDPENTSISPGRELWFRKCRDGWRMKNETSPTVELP
Test: Endothelial lipase (EL) enzymatic assay with fluorescent substrate A10070 in DMPG vesicles
Format: biochemical
Summary of the method: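 The enzyme source was conditioned medium from HT-1080 cells engineered to overexpress endogenous EL. It was preincubated with compound for 20 min at 37 °C in 50 mM HEPES pH 8.0, 50 mM NaCl, 1 mM CaCl2. Reactions started with DMPG vesicles carrying FRET substrate A10070 (mole fraction 0.05). The rate was taken from the linear slope of fluorescence (ex 488/em 530 nm) over 10 min.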

[1] = conditioned media from HT-1080 cells overexpressing endogenous EL, 20 min preincubation at 37° C., read-out: EL IC50
[2] = range observed in the EL assay, read-out: EL IC50 values

IC50 [1] [µM] | IC50 [2] [µM] | Structure (SMILES)
 | ≤ 10 | Nc1c(C(=O)NC2CCC(c3cnn(Cc4ccccc4)c3)C2)[nH]c(=O)[nH]c1=O (single isomer, unassigned) [Example 131, 5-amino-N-(3-(1-benzyl-1H-pyrazol-4-yl)cyclopentyl)-2,6-dioxo-1,2,3,6-tetrahydropyrimidine-4-carboxamide]
 | ≤ 10 | Nc1c(C(=O)N[C@H]2CCc3ccc(OCc4ccccc4)cc32)[nH]c(=O)[nH]c1=O [Example 90, (S)-5-amino-N-(6-(benzyloxy)-2,3-dihydro-1H-inden-1-yl)-2,6-dioxo-1,2,3,6-tetrahydropyrimidine-4-carboxamide]
 | ≤ 10 | Nc1c(C(=O)N[C@H]2CC[C@@H](c3ccc(-c4ccccc4)cc3)C2)[nH]c(=O)[nH]c1=O [Example 167, 5-amino-N-((1S,3R)-3-(biphenyl-4-yl)cyclopentyl)-2,6-dioxo-1,2,3,6-tetrahydropyrimidine-4-carboxamide]
3.74 | ≤ 10 | Nc1c(C(=O)NC2CCOc3ccccc32)[nH]c(=O)[nH]c1=O (centres unmarked) [Example 32, 5-amino-N-(chroman-4-yl)-2,6-dioxo-1,2,3,6-tetrahydropyrimidine-4-carboxamide]
 | ≤ 10 | Nc1c(C(=O)N[C@H]2CC[C@H](C(=O)Nc3ccccc3)C2)[nH]c(=O)[nH]c1=O [Example 129, 5-amino-2,6-dioxo-N-((1S,3S)-3-(phenylcarbamoyl)cyclopentyl)-1,2,3,6-tetrahydropyrimidine-4-carboxamide]
 | ≤ 10 | Nc1c(C(=O)N[C@@H]2C[C@@H](c3ccccc3)c3ccccc32)[nH]c(=O)[nH]c1=O [Example 42, 5-amino-2,6-dioxo-N-((1R,3S)-3-phenyl-2,3-dihydro-1H-inden-1-yl)-1,2,3,6-tetrahydropyrimidine-4-carboxamide]
0.03 | ≤ 10 | Nc1c(C(=O)NC2CCCC(c3cnn(Cc4ccccc4)c3)C2)[nH]c(=O)[nH]c1=O (centres unmarked) [Example 127, 5-amino-N-(3-(1-benzyl-1H-pyrazol-4-yl)cyclohexyl)-2,6-dioxo-1,2,3,6-tetrahydropyrimidine-4-carboxamide]
 | ≤ 10 | Nc1c(C(=O)N[C@@H]2CCCc3cc(Oc4ccccc4)ccc32)[nH]c(=O)[nH]c1=O [Example 85, (R)-5-amino-2,6-dioxo-N-(6-phenoxy-1,2,3,4-tetrahydronaphthalen-1-yl)-1,2,3,6-tetrahydropyrimidine-4-carboxamide]
 | ≤ 10 | O=C(N[C@H]1CCC[C@H](c2ccccc2)C1)c1[nH]c(=O)[nH]c(=O)c1O [Example 277, 5-hydroxy-2,6-dioxo-N-((1S,3S)-3-phenylcyclohcxyl)-1,2,3,6-tetrahydropyrimidine-4-carboxamide]
4.89 | ≤ 10 | CC1C(NC(=O)c2[nH]c(=O)[nH]c(=O)c2N)CC2(C(C)C)CC12 (centres unmarked) [Example 57, 5-amino-N-(1-isopropyl-4-methylbicyclo[3.1.0]hexan-3-yl)2,6-dioxo-1,2,3,6-tetrahydropyrimidine-4-carboxamide]
 | ≤ 10 | CC(C)(C)COc1ccc(C2CCC(NC(=O)c3[nH]c(=O)[nH]c(=O)c3N)C2)cc1 (centres unmarked) [Example 143, 5-amino-N-(3-(4-(neopentyloxy)phenyl)cyclopentyl)-2,6-dioxo-1,2,3,6-tetrahydropyrimidine-4-carboxamide]
 | ≤ 10 | Nc1c(C(=O)NC2CCC(c3cccc(OCc4ccccc4)c3)C2)[nH]c(=O)[nH]c1=O (single isomer, unassigned) [Example 155, 5-amino-N-(3-(3-(benzyloxy)phenyl)cyclopentyl)-2,6-dioxo-1,2,3,6-tetrahydropyrimidine-4 carboxamide]

Further lines, the molecule ahead of its results:

Structure (SMILES) | IC50 [1] [µM] | IC50 [2] [µM]
Cn1nccc1-c1ccc([C@@H]2CC[C@H](NC(=O)c3[nH]c(=O)[nH]c(=O)c3N)C2)cc1 [Example 163, 5-amino-N-((1S,3R)-3-(4-(1-methyl-1H-pyrazol-5-yl)phenyl)cyclopentyl)-2,6-dioxo-1,2,3,6-tetrahydropyrimidine-4-carboxamide] | 2.25 | ≤ 10
Nc1c(C(=O)NC2CCCc3ccsc32)[nH]c(=O)[nH]c1=O (centres unmarked) [Example 46, 5-amino-2,6-dioxo-N-(4,5,6,7-tetrahydrobenzo[b]thiophen-7-yl)-1,2,3,6-tetrahydropyrimidine-4-carboxamide] | 3.32 | ≤ 10
CC(C)Cn1cc(-c2ccc([C@@H]3CC[C@H](NC(=O)c4[nH]c(=O)[nH]c(=O)c4N)C3)cc2)cn1 [Example 172, 5-amino-N-((1S,3R)-3-(4-(1-isobutyl-1H-pyrazol-4-yl)phenyl)cyclopentyl)-2,6-dioxo-1,2,3,6-tetrahydropyrimidine-4-carboxamide] |  | ≤ 10
O=C(Nc1ccc2c(c1)CCC[C@H]2NC(=O)c1[nH]c(=O)[nH]c(=O)c1O)c1ccccc1 [Example 288, (R)-N-(6-benzamido-1,2,3,4-tetrahydronaphthalen-1-yl)-5-hydroxy-2,6-dioxo-1,2,3,6-tetrahydropyrimidine-4-carboxamide] |  | ≤ 10
Nc1c(C(=O)N[C@@H]2CCCc3ccc(F)cc32)[nH]c(=O)[nH]c1=O [Example 40, (R)-5-amino-N-(7-fluoro-1,2,3,4-tetrahydronaphthalen-1-yl)-2,6-dioxo-1,2,3,6-tetrahydropyrimidine-4-carboxamide] |  | ≤ 10
CC(C)Oc1ccc(C2CCC(NC(=O)c3[nH]c(=O)[nH]c(=O)c3O)C2)cc1 (centres unmarked) [Example 294, 5-hydroxy-N-(3-(4-isopropoxyphenyl)cyclopentyl)-2,6-dioxo-1,2,3,6-tetrahydropyrimidine-4 carboxamide] |  | ≤ 10
Nc1c(C(=O)NC2CCCN(c3nccc(C(F)(F)F)n3)C2)[nH]c(=O)[nH]c1=O (centres unmarked) [Example 184, 5-amino-2,6-dioxo-N-(1-(4-(trifluoromethyl)pyrimidin-2-yl)piperidin-3-yl)-1,2,3,6-tetrahydropyrimidine-4-carboxamide] | 5.71 | ≤ 10
Nc1c(C(=O)N[C@@H]2CC[C@@H](C(=O)N[C@H]3CCCc4ccccc43)C2)[nH]c(=O)[nH]c1=O [Example 146, 5-amino-2,6-dioxo-N-((1R,3R)-3-((S)-1,2,3,4-tetrahydronaphthalen-1-ylcarbamoyl)cyclopentyl)-1,2,3,6-tetrahydropyrimidine-4-carboxamide] |  | ≤ 10
Nc1c(C(=O)N[C@H]2CC[C@@H](NC(=O)Cc3ccccc3)CC2)[nH]c(=O)[nH]c1=O [Example 116, 5-amino-2,6-dioxo-N-(cis-4-(2-phenylacetamido)cyclohexyl)-1,2,3,6-tetrahydropyrimidine-4-carboxamide] |  | ≤ 10
O=C(N[C@@H]1CCc2cc(O)ccc21)c1[nH]c(=O)[nH]c(=O)c1O [Example 262, (R)-5-hydroxy-N-(5-hydroxy-2,3-dihydro-1H-inden-1-yl)-2,6-dioxo-1,2,3,6-tetrahydropyrimidine-4-carboxamide] |  | ≤ 10
CCOC(=O)[C@H]1CCC[C@H]1NC(=O)c1[nH]c(=O)[nH]c(=O)c1N [Example 61, (1S,2R)-ethyl 2-(5-amino-2,6-dioxo-1,2,3,6-tetrahydropyrimidine-4-carboxamido) cyclopentanecarboxylate] |  | ≤ 10
COc1ccc2c(c1)C(NC(=O)c1[nH]c(=O)[nH]c(=O)c1N)CCC2 (single isomer, unassigned; enantiomer b) [Example 200, 5-amino-N-(7-methoxy-1,2,3,4-tetrahydronaphthalen-1-yl)-2,6-dioxo 1,2,3,6-tetrahydropyrimidine-4-carboxamide (Enantiomer B)] |  | ≤ 10
Nc1c(C(=O)N[C@@H]2CCc3c(Cl)cc(Cl)cc32)[nH]c(=O)[nH]c1=O [Example 5, (R)-5-amino-N-(4,6-dichloro-2,3-dihydro-1H-inden-1-yl)-2,6-dioxo-1,2,3,6-tetrahydropyrimidine-4-carboxamide] |  | ≤ 10
CCNc1c(C(=O)N[C@H]2CC[C@@H](c3ccccc3)CC2)[nH]c(=O)[nH]c1=O [Example 229, 5-(ethylamino)-2,6-dioxo-N-(cis-4-phenylcyclohexyl)-1,2,3,6-tetrahydropyrimidine-4-carboxamide] |  | ≤ 10
Nc1c(C(=O)N[C@@H]2CCc3c(Oc4ccccc4)cccc32)[nH]c(=O)[nH]c1=O [Example 88, (R)-5-amino-2,6-dioxo-N-(4-phenoxy-2,3-dihydro-1H-inden-1-yl)-1,2,3,6-tetrahydropyrimidine-4-carboxamide] |  | ≤ 10
Nc1c(C(=O)N[C@H]2CC[C@@H](NC(=O)c3ccccc3)CC2)[nH]c(=O)[nH]c1=O [Example 115, 5-amino-N-(cis-4-benzamidocyclohexyl)-2,6-dioxo-1,2,3,6-tetrahydropyrimidine-4-carboxamide] |  | ≤ 10
Nc1c(C(=O)N[C@@H]2CC[C@@H](C(=O)NCc3nc4ccccc4s3)C2)[nH]c(=O)[nH]c1=O [Example 148, 5-amino-N-((1R,3R)-3-(benzo[d]thiazol-2-ylmethylcarbamoyl)cyclopentyl)-2,6-dioxo-1,2,3,6-tetrahydropyrimidine-4-carboxamide] |  | ≤ 10

From patent US9199946B2, “Pyrimidinone carboxamide inhibitors of endothelial lipase” (BRISTOL-MYERS SQUIBB COMPANY, priority 2012, dated 2015)
